Legend:
Assay type in all cases: in vivo
[1] = Acute toxicity study, intravenous; details: female, SHK, mouse, in vivo, mice, single intravenous
Protocol: (§1) In toxicological experiments with each compound, 72 to 108 animals were used and divided into 8 or 9 experimental groups (6 to 12 mice each), in which the animals received various doses of the tested compounds. There was also a control group of animals, which was injected with the corresponding solvent instead of the experimental compound, and a control group of intact animals. The prepared substances were injected into the animals intravenously (into the tail vein); the dose range was from 1.0 to 100 mg/kg.
(§2) The study was conducted on adult female SHK mice (18–20 g) obtained from the animal breeding unit of the FMBA (Scientific Center for Biomedical Technologies of the Federal Biomedical Agency, Moscow, Russia). The animals were randomly divided into groups (n = 6 for the study of acute toxicity, n = 10 (or 8) to study the efficacy of suppressing staphylococcal sepsis). The study of the effectiveness of drugs in the treatment of staphylococcal sepsis required the use of 110–175 mice for each drug, 10 animals per group. The animal study was approved by the Ethics of Animal Experimentation of Gause Institute of New Antibiotics (protocol No 13/2019).
(§3) To prepare solutions of preparations suitable for intravenous administration, dried test compounds with a purity of at least 99% were dissolved in a 5% glucose solution for intravenous administration at a concentration of 3.2 or 6.4 mg/mL. The solutions were sterilized by filtration through Sterivex 0.22 μm filters (Millipore, Burlington, MA, USA). Sterile solutions of drugs with a reduced concentration were then prepared, which allowed for the introduction ofvarious doses of drugs with the same volume (0.2 mL) of solutions. The test preparations were stored at a temperature no higher than 25 °C.
(§4) The study of acute toxicity of each drug was conducted on 72 mice (6 mice per group) using a solution of the test drug prepared in 5% glucose solution. The drug was injected into the tail vein of the animals (0.2 mL) using a syringe with a metal needle in a dose range of 1.0 mg/kg to 70 mg/kg.
(§5) From the first day after administration, the animals were under continuous observation. The number of dead animals and the time of their death were recorded daily. The body weight of the animals and their food consumption was recorded once a week, and the clinical signs of the animals’ health were assessed daily. The duration of observation of the animals was at least 30 days after the last death of the animal. Doses characterizing the toxicity of drugs were calculated by the Litchfield and Wilcoxon method using the StatPlus 2006 software AnalystSoft StatPlus—statistical analysis program, version 2006 (http://www.analystsoft.com/, accessed 11 January 2022). The mean and standard deviation were calculated for all data. The differences are defined as significant at p ≤ 0.05.

SHK mice = assay: Acute toxicity study, intravenous
Protocol: as §1, §2, §3, §4, §5

S. aureus 10 = assay: Model of staphylococcal sepsis in mice; details: for Death (%) / Survival Rate (%): 14 days
Protocol: To determine the ability of drugs to suppress staphylococcal sepsis, a clinical isolate of S. aureus 10, lacking drug resistance and adapted for use in animals, was used. Animals, divided into several experimental groups, were intravenously infected with a lethal dose of S. aureus (0.1 mL each) (Groups 1–5). […] Along with the testing of compounds of the trisndolylmethylium class, a similar experiment was carried out with levofloxacin, taken as a reference drug for a separate group of animals (Group 4). The control group of animals received an intravenous injection of 5% glucose solution instead of the tested preparations (Group 5). Another control group, which also received a single injection of 5% glucose solution, consisted of animals that were not exposed to infection (Group 6). To study each drug, 110–150 animals were required, which were divided into small subgroups of 10 mice each to test various doses of the compounds studied. The number of dead animals and the time of their death were recorded daily, and the appearance of the animals and their weight were assessed. The duration of the experiment was 14 days.
as §2
The experiment used a strain of S. aureus 10, having no drug resistance and adapted for use in animals. Initially, the 100% lethal dose (LD100) was determined for this pathogen strain in SHK mice, i.e., the dose of the pathogen at which the death of 100% of the animals was recorded. LD100 dose of staphylococcus detected in the experiment was 8.0 × 10^8 CFU/mouse, which was then used for infecting animals.
The chemotherapeutic efficacy of tris(indolyl)methane derivatives was determined in a model of staphylococcal sepsis in mice. Mice of the SHK colony, weighing 18–20 g, were infected intravenously (into the tail vein) with a lethal dose of staphylococcus (0.1 mL of solution). One hour after infection, mice were injected intravenously (0.2 mL of solution each) with the tested tris(indolyl)methane derivatives in the range of doses from 0.1 to 40 mg/kg. For tested drugs, we used solutions prepared in 5% glucose solution. The study of the effectiveness of each drug was conducted on 115–155 mice (10 mice per group). The duration of the experiment was 14 days. The number of dead animals and the time of their death were recorded daily, and the body weight of the animals was recorded three times a week. Their feed intake was monitored, and clinical signs of animal health were assessed daily.
To determine the effectiveness of the tested drugs, 50% effective doses (ED50) were used, which was determined by the Behrens method (frequency accumulation method), as well as by the Litchfield and Wilcoxon method using the StatPlus 2006 software. For all data, the mean and standard deviation were calculated. The differences were defined as significant at p ≤ 0.05.

[2] = single i.v. 5.0 mg/kg 1 h after infection
[3] = single i.v. 10.0 mg/kg 1 h after infection
[4] = single i.v. 15.0 mg/kg 1 h after infection
[5] = single i.v. 20.0 mg/kg 1 h after infection
[6] = single i.v. 25.0 mg/kg 1 h after infection
[7] = single i.v. 30.0 mg/kg 1 h after infection
[8] = single i.v. 35.0 mg/kg 1 h after infection

Structure (SMILES): CCCn1cc([C+](c2cn(CCC)c3ccccc23)c2cn(C3=C(N)C(=O)NC3=O)c3ccccc23)c2ccccc21.[Cl-] [Compound 2, (1-(4-Amino-2,5-dioxo-2,5-dihydro-1H-pyrrol-3-yl)-1H-indol-3-yl)bis(1-propyl-1H-indol-3-yl) methylium chloride]
- LD50 [1]: 41.8 mg/kg
- MTD ([1]; read-out: MTD (LD10)): 34.1 mg/kg
- lethal dose causing the death of more than 50% of the animals (SHK mice; intravenous): 35 to 50 mg/kg
- time of death of animals after administration (SHK mice; intravenous, in words): in the first two hours after administration
- LD16 (SHK mice; single intravenous): 35.8 mg/kg
- LD84 (SHK mice; single intravenous): 47.7 mg/kg
- LD100 (SHK mice; single intravenous): 50.7 mg/kg
- ED50 (S. aureus 10; Staphylococcus aureus, 10, iv, 1 h): 18.3 mg/kg
- Death (%) (S. aureus 10; [2]): 80%
- Survival Rate (%) (S. aureus 10; [2]): 20%
- Death (%) (S. aureus 10; [3]): 70%
- Survival Rate (%) (S. aureus 10; [3]): 30%
- Death (%) (S. aureus 10; [4]): 60%
- Survival Rate (%) (S. aureus 10; [4]): 40%
- Death (%) (S. aureus 10; [5]): 40%
- Survival Rate (%) (S. aureus 10; [5]): 60%
- Death (%) (S. aureus 10; [6]): 40%
- Survival Rate (%) (S. aureus 10; [6]): 60%
- Death (%) (S. aureus 10; [7]): 20%
- Survival Rate (%) (S. aureus 10; [7]): 80%
- Death (%) (S. aureus 10; [8]): 30%
- Survival Rate (%) (S. aureus 10; [8]): 70%
